How the values were obtained:
c-kit kinase = c-kit kinase (Homo sapiens (Human), UniProt P10721); assay: c-Kit biochemical assay (AlphaScreen); details: c-kit biochemical inhibitory activity
Summary of the method: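 AlphaScreen of biotin-(E4Y)3 (100 nM) phosphorylation by c-kit (0.1 ng) in HEPES pH 7.2, Mg/Mn, 10 μM ATP, 5% DMSO, 1 h at room temperature; variant uses 100 μM ATP, 30 nM biotin-(E4Y)10, 1 ng enzyme. PY20 acceptor/streptavidin donor signal versus 8-point concentration gives IC50.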

[1] = system: BaF3-FL KIT D816V or BaF3-FL KIT V560G/D816V cell line; assay: Cell-based assays of c-Kit mutant kinase activity (cell growth, ATPlite); details: at least one of the c-kit cell assays of Example 26
Summary of the method: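 IC50 derived from ATP-content luminescence (ATPlite) after three-day compound exposure at 37° C., 5% CO2. Cells: BaF3 rendered growth-dependent on full-length human KIT D816V or V560G/D816V, 1×10^4 per well, RPMI plus 10% FBS; 8 points, 1:3 steps, maximum 10 μM final, 0.2% DMSO.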

Sequence of c-kit kinase (P10721 26-976): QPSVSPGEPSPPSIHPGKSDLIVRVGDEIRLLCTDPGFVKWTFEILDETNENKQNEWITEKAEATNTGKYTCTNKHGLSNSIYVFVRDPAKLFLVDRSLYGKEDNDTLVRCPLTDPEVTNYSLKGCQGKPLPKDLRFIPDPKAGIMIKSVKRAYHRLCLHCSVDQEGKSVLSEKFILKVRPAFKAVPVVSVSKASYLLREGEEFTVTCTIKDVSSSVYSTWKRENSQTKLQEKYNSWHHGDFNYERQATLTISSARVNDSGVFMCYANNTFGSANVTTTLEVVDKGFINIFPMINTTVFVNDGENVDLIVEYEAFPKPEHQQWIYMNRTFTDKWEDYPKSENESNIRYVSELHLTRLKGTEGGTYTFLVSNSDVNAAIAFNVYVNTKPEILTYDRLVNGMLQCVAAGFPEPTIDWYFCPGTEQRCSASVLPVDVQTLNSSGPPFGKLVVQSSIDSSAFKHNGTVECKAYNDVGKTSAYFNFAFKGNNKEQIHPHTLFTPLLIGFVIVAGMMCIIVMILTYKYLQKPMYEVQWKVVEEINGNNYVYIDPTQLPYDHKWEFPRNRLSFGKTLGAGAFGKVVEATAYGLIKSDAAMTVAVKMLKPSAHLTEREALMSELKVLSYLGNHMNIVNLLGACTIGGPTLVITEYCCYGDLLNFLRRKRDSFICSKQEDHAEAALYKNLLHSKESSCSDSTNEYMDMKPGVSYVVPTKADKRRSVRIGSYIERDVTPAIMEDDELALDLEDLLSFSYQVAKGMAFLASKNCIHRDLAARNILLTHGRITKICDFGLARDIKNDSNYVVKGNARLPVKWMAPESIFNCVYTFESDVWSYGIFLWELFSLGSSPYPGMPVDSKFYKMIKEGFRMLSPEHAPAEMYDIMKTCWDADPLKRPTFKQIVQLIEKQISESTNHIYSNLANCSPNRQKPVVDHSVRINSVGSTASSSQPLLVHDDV

Structure (SMILES) | IC50 (c-kit kinase) | IC50 [1]
CCNS(=O)(=O)c1cccc(Nc2ncc(NC(=O)c3[nH]nc(C)c3C)cn2)c1 [P-2050, N-[2-[3-(ethylsulfamoyl)anilino]pyrimidin-5-yl]-3,4-dimethyl-1H-pyrazole-5-carboxamide] | 10 to 200 µM | < 10 µM
O=C(Nc1cnc2[nH]c(-c3ccc(F)cc3)cc2c1)c1cccc2n[nH]cc12 [P-2027, N-[2-(4-fluorophenyl)-1H-pyrrolo[2,3-b]pyridin-5-yl]-2H-indazole-4-carboxamide] | 0.0001 to 1 µM | < 10 µM
Cc1cc(-c2cc3cc(NC(=O)c4[nH]nc(C)c4C)cnc3[nH]2)cnc1C [P-2282, N-[2-(5,6-dimethyl-3-pyridyl)-1H-pyrrolo[2,3-b]pyridin-5-yl]-3,4-dimethyl-1H-pyrazole-5-carboxamide] | 1 to 10 µM | < 10 µM
Cc1n[nH]c(C(=O)Nc2cnc(Nc3ccccc3)nc2)c1C [P-2044, N-(2-anilinopyrimidin-5-yl)-3,4-dimethyl-1H-pyrazole-5-carboxamide] | 10 to 200 µM | < 10 µM
Cc1n[nH]c(C(=O)Nc2cnc3[nH]c(-c4ccnc(N5CCN(C(=O)C6CC6)CC5)c4)cc3c2)c1C [P-2187, N-[2-[2-[4-(cyclopropanecarbonyl)piperazin-1-yl]-4-pyridyl]-1H-pyrrolo[2,3-b]pyridin-5-yl]-3,4-dimethyl-1H-pyrazole-5-carboxamide] | 1 to 10 µM | < 10 µM
Cc1nn(C)cc1-c1cc2cc(NC(=O)c3[nH]nc(C)c3C)cnc2[nH]1 [P-2038, N-[2-(1,3-dimethylpyrazol-4-yl)-1H-pyrrolo[2,3-b]pyridin-5-yl]-4,5-dimethyl-1H-pyrazole-3-carboxamide] | 0.0001 to 1 µM | < 10 µM
Cc1cc(C(=O)Nc2cnc3[nH]c(C4=CCN(C(=O)N5CCOCC5)CC4)cc3c2)n[nH]1 [P-2031, 5-methyl-N-[2-[1-(morpholine-4-carbonyl)-3,6-dihydro-2H-pyridin-4-yl]-1H-pyrrolo[2,3-b]pyridin-5-yl]-1H-pyrazole-3-carboxamide] | 0.0001 to 1 µM | < 10 µM
Cc1cc(C(=O)Nc2cnc3[nH]c(-c4ccc(F)cc4)cc3c2)[nH]n1 [P-2019, N-[2-(4-fluorophenyl)-1H-pyrrolo[2,3-b]pyridin-5-yl]-3-methyl-1H-pyrazole-5-carboxamide] | 10 to 200 µM | < 10 µM
Cc1n[nH]c(C(=O)Nc2cnc3c(c2)cc(C2=CCN(C(=O)N4CCOCC4)CC2)n3S(=O)(=O)c2ccccc2)c1C [P-2033, N-[1-(benzenesulfonyl)-2-[1-(morpholine-4-carbonyl)-3,6-dihydro-2H-pyridin-4-yl]pyrrolo[2,3-b]pyridin-5-yl]-3,4-dimethyl-1H-pyrazole-5-carboxamide] | 10 to 200 µM | < 10 µM
Cc1[nH]nc(C(=O)Nc2cnc3[nH]c(C4=CCN(C(=O)C5CC5)CC4)cc3c2)c1C [P-2043, N-[2-[1-(cyclopropanecarbonyl)-3,6-dihydro-2H-pyridin-4-yl]-1H-pyrrolo[2,3-b]pyridin-5-yl]-4,5-dimethyl-1H-pyrazole-3-carboxamide] | 0.0001 to 1 µM | < 10 µM
Cc1[nH]nc(C(=O)Nc2cnc3[nH]c(C4=CCN(C(=O)C5CC5)CC4)cc3c2)c1Cl [P-2039, 4-chloro-N-[2-[1-(cyclopropanecarbonyl)-3,6-dihydro-2H-pyridin-4-yl]-1H-pyrrolo[2,3-b]pyridin-5-yl]-5-methyl-1H-pyrazole-3-carboxamide] | 0.0001 to 1 µM | < 10 µM
Cc1n[nH]c(C(=O)Nc2cnc3[nH]c(-c4cccc(CC(=O)O)c4)cc3c2)c1C [P-2293, 2-[3-[5-[(3,4-dimethyl-1H-pyrazole-5-carbonyl)amino]-1H-pyrrolo[2,3-b]pyridin-2-yl]phenyl]acetic acid] | 0.0001 to 1 µM | < 10 µM
Cc1n[nH]c(C(=O)Nc2cnc3[nH]c(C4=CCOCC4)cc3c2)c1C [P-2271, N-[2-(3,6-dihydro-2H-pyran-4-yl)-1H-pyrrolo[2,3-b]pyridin-5-yl]-3,4-dimethyl-1H-pyrazole-5-carboxamide] | 0.0001 to 1 µM | < 10 µM
COC(=O)c1cccc(C(=O)Nc2cnc3[nH]c(-c4ccccc4)cc3c2)c1 [P-2290, methyl 3-[(2-phenyl-1H-pyrrolo[2,3-b]pyridin-5-yl)carbamoyl]benzoate] | 10 to 200 µM | < 10 µM
Cc1n[nH]c(C(=O)Nc2cnc3[nH]c(-c4cncc(C#N)c4)cc3c2)c1C [P-2270, N-[2-(5-cyano-3-pyridyl)-1H-pyrrolo[2,3-b]pyridin-5-yl]-3,4-dimethyl-1H-pyrazole-5-carboxamide] | 10 to 200 µM | < 10 µM
Cc1n[nH]c(C(=O)Nc2cnc3[nH]c(-c4ccccc4C(F)(F)F)cc3c2)c1C [P-2180, 3,4-dimethyl-N-[2-[2-(trifluoromethyl)phenyl]-1H-pyrrolo[2,3-b]pyridin-5-yl]-1H-pyrazole-5-carboxamide] | 1 to 10 µM | < 10 µM

Structure (SMILES) | IC50 (c-kit kinase) | IC50 [1]
O=C(Nc1cnc2[nH]c(-c3ccccc3)cc2c1)c1cn[nH]n1 [P-2015, N-(2-phenyl-1H-pyrrolo[2,3-b]pyridin-5-yl)-2H-triazole-4-carboxamide] | 1 to 10 µM | < 10 µM
Cc1n[nH]c(C(=O)Nc2cnc3[nH]c(-c4ccnc(N5CCN(S(C)(=O)=O)CC5)c4)cc3c2)c1C [P-2186, 3,4-dimethyl-N-[2-[2-(4-methylsulfonylpiperazin-1-yl)-4-pyridyl]-1H-pyrrolo[2,3-b]pyridin-5-yl]-1H-pyrazole-5-carboxamide] | 1 to 10 µM | < 10 µM
O=C(Nc1cnc2[nH]c(-c3ccc(F)cc3)cc2c1)c1n[nH]c2c1CCCC2 [P-2047, N-[2-(4-fluorophenyl)-1H-pyrrolo[2,3-b]pyridin-5-yl]-4,5,6,7-tetrahydro-1H-indazole-3-carboxamide] | 10 to 200 µM | < 10 µM
Cc1n[nH]c(C(=O)Nc2cnc3[nH]nc(-c4cccc(N5CCNCC5)c4)c3c2)c1C [P-2166, 3,4-dimethyl-N-[3-(3-piperazin-1-ylphenyl)-1H-pyrazolo[3,4-b]pyridin-5-yl]-1H-pyrazole-5-carboxamide] | 0.0001 to 1 µM | < 10 µM
CC(=O)Nc1cccc(C(=O)Nc2cnc3[nH]c(-c4ccc(F)cc4)cc3c2)c1 [P-2026, 3-acetamido-N-[2-(4-fluorophenyl)-1H-pyrrolo[2,3-b]pyridin-5-yl]benzamide] | 0.0001 to 1 µM | < 10 µM
Cc1cc(-c2cc3cc(NC(=O)c4[nH]nc(C)c4C)cnc3[nH]2)ccc1C(=O)O [P-2296, 4-[5-[(3,4-dimethyl-1H-pyrazole-5-carbonyl)amino]-1H-pyrrolo[2,3-b]pyridin-2-yl]-2-methyl-benzoic acid] | 0.0001 to 1 µM | < 10 µM
Cc1c[nH]nc1C(=O)Nc1cnc2[nH]c(-c3ccc(F)cc3)cc2c1 [P-2029, N-[2-(4-fluorophenyl)-1H-pyrrolo[2,3-b]pyridin-5-yl]-4-methyl-1H-pyrazole-3-carboxamide] | 0.0001 to 1 µM | < 10 µM
COc1ccc(-c2cc3cc(NC(=O)c4[nH]nc(C)c4C)cnc3[nH]2)c(C)c1C [P-2284, N-[2-(4-methoxy-2,3-dimethyl-phenyl)-1H-pyrrolo[2,3-b]pyridin-5-yl]-3,4-dimethyl-1H-pyrazole-5-carboxamide] | 1 to 10 µM | < 10 µM
Cc1ccc(-c2cc3cc(NC(=O)c4[nH]nc(C)c4C)cnc3[nH]2)c(C)c1 [P-2181, N-[2-(2,4-dimethylphenyl)-1H-pyrrolo[2,3-b]pyridin-5-yl]-3,4-dimethyl-1H-pyrazole-5-carboxamide] | 10 to 200 µM | < 10 µM
CCc1cc(-c2cc3cc(NC(=O)c4[nH]nc(C)c4C)cnc3[nH]2)ccn1 [P-2177, N-[2-(2-ethyl-4-pyridyl)-1H-pyrrolo[2,3-b]pyridin-5-yl]-3,4-dimethyl-1H-pyrazole-5-carboxamide] | 0.0001 to 1 µM | < 10 µM
Cc1cc(Cl)ccc1-c1cc2cc(NC(=O)c3[nH]nc(C)c3C)cnc2[nH]1 [P-2277, N-[2-(4-chloro-2-methyl-phenyl)-1H-pyrrolo[2,3-b]pyridin-5-yl]-3,4-dimethyl-1H-pyrazole-5-carboxamide] | 10 to 200 µM | < 10 µM
Cc1n[nH]c(C(=O)Nc2cnc3[nH]c(-c4ccc(CC(=O)O)cc4)cc3c2)c1C [P-2295, 2-[4-[5-[(3,4-dimethyl-1H-pyrazole-5-carbonyl)amino]-1H-pyrrolo[2,3-b]pyridin-2-yl]phenyl]acetic acid] | 0.0001 to 1 µM | < 10 µM
O=C(Nc1cnc2[nH]c(-c3ccccc3)cc2c1)c1ncccc1F [P-2012, 3-fluoro-N-(2-phenyl-1H-pyrrolo[2,3-b]pyridin-5-yl)pyridine-2-carboxamide] | 0.0001 to 1 µM | < 10 µM
CCCS(=O)(=O)Nc1cccc(Nc2ncc(NC(=O)c3[nH]nc(C)c3C)cn2)c1 [P-2052, 3,4-dimethyl-N-[2-[3-(propylsulfonylamino)anilino]pyrimidin-5-yl]-1H-pyrazole-5-carboxamide] | 1 to 10 µM | < 10 µM
Cc1n[nH]c(C(=O)Nc2cnc3[nH]c(-c4ccc(F)cc4)cc3c2)c1Cl [P-2023, 4-chloro-N-[2-(4-fluorophenyl)-1H-pyrrolo[2,3-b]pyridin-5-yl]-3-methyl-1H-pyrazole-5-carboxamide] | 1 to 10 µM | < 10 µM
Cc1n[nH]c(C(=O)Nc2cnc3[nH]c(Cl)cc3c2)c1C [P-2049, N-(2-chloro-1H-pyrrolo[2,3-b]pyridin-5-yl)-3,4-dimethyl-1H-pyrazole-5-carboxamide] | 10 to 200 µM | < 10 µM

— US10301280B2 (Plexxikon Inc., priority 2012, dated 2019)
